Experimental findings from PMC10283505, “CVM-1118 (foslinanib), a 2-phenyl-4-quinolone derivative, promotes apoptosis and inhibits vasculogenic mimicry via targeting TRAP1” (Pathology and Oncology Research, 2023) are described below.

Data set [1] in a line: Cell viability at VM-inhibiting concentration. The class given is cell-based. Particulars: human, human melanoma cells; 10 nM; read-out: percentage of viable cells.
The next data set concerns HCT-116. The data set can be described thus: Orthotopic HCT-116 mouse xenograft study, tumor volume. Particulars: for tumor volume: day 43, vehicle 1,139 ± 580. The class given is in vivo, BALB/c nude mice. The procedure:
This animal study was contracted to CrownBio International R&D Center (Beijing, China) and was conducted under the approval of the Animal Ethics Committee at CrownBio in compliance with institutional and national guidelines. Seven-to eight-week-old female BALB/c nude mice were obtained from HFK Bio-Technology Co., Ltd. (Beijing, China). HCT-116 cells (2 × 10^6) were suspended in 20 μL PBS and then injected into the cecal wall. Treatment began on day 14 after cell inoculation when tumor reached ∼100 mm^3 measured in a satellite group of three mice. Treatment groups include vehicle control [PEG400:pH 10 carbonate buffer (40:60)], CVM-1118 at 20, 50, and 100 mg/kg given orally daily for 28 days, and CVM-1118 at 20 mg/kg given as intravenous injection once every 2 days for 7 times. Tumor volumes were measured at the end of in-life study on day 43. At the end of in vivo study, tumor tissues from selected groups were excised, collected, and subjected to standard immunohistochemical procedures to visualize the effect of CVM-1118 on VM network formation. Briefly, rabbit anti-human CD31 antibody (Abcam) was used as the primary Ab for the staining and the number of channels with CD31+/red blood cell (RBC)+, or CD31−/RBC+ were counted based on five light fields (×200) on the whole section of each sample in each group under microscope. Analysis of difference in tumor volume for drug-treated group against vehicle control group was conducted using one-way ANOVA followed by least significant difference (LSD) test (equal variance tested and confirmed by Brown-Forsythe test). Statistical analysis for VM formation was evaluated using Mann-Whitney test. All data were analyzed using GraphPad Prism 9.5.

The target of a further data set is Nucleolin (Homo sapiens, UniProt P19338). Put plainly: Surface plasmon resonance (Biacore). The class given is binding. As to conditions: SPR. On the technique in general: Surface plasmon resonance follows binding to a sensor surface in real time, without labels.
Nucleolin, sequence (P19338 whole entry): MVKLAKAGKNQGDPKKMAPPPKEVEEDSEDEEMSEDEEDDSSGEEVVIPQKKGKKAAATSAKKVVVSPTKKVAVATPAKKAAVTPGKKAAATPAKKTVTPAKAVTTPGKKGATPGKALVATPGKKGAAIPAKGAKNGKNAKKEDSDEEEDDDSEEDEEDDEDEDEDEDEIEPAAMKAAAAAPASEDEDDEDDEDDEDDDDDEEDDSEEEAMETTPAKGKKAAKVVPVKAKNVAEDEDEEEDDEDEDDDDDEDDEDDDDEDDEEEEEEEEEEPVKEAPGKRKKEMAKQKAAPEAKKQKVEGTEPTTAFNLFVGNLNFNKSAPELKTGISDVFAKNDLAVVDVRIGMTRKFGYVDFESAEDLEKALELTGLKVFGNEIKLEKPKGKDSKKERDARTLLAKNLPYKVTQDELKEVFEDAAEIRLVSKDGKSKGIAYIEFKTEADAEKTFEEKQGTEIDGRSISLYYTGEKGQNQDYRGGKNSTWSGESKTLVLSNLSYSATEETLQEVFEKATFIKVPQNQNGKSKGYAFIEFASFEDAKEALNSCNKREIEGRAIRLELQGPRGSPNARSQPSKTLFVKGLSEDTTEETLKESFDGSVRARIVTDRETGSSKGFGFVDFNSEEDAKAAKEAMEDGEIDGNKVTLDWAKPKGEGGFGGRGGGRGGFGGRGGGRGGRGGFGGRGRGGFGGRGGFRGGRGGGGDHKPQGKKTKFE
The test system of the next data set is DU-145. The data set can be described thus: NCI 60 cytotoxicity screening. The class given is cell-based. Particulars: Homo sapiens; DU-145, Prostate.
The test system of a further data set is SNB-19. Put plainly: NCI 60 cytotoxicity screening. The class given is cell-based. As to conditions: Homo sapiens; SNB-19, CNS.
The test system of a further data set is HOP-62. Put plainly: NCI 60 cytotoxicity screening. Particulars: Homo sapiens; HOP-62, NSCLC. The format is cell-based.
A further data set deals with T1, TRAP1 (Homo sapiens, UniProt Q12931).
T1 sequence (Q12931 60-704): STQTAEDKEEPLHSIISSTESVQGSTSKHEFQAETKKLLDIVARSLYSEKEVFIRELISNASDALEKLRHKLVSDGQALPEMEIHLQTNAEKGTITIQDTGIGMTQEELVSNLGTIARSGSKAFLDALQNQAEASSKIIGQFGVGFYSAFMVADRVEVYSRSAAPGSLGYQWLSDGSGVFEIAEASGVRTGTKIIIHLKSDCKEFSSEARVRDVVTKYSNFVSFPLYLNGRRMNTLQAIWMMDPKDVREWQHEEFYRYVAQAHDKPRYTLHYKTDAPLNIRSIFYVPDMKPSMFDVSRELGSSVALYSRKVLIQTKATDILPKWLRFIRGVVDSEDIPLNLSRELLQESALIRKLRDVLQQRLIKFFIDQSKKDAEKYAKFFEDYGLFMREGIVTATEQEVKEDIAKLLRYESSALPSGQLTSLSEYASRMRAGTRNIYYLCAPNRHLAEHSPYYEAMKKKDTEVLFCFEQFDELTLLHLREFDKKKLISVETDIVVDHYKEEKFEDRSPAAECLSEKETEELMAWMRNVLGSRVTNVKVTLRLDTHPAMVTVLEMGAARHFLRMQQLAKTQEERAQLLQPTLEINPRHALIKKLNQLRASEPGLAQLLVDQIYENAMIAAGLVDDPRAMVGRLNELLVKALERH
Put plainly: Surface plasmon resonance (Biacore). Also noted: purchased Abcam ab123775. As to conditions: TRAP1, SPR. The class given is binding. The procedure: To confirm the molecular binding of the targeted protein, Surface Plasmon Resonance (SPR) was performed with a Biacore 3000. TRAP1 recombinant protein (Abcam, ab123775) or human Hsp90 recombinant protein (HSP90AB1, Abcam, ab131923) were immobilized on a CM5 sensor chip surface using the amine coupling method according to the manufacturer’s instruction (Biacore, GE Healthcare). CVM-1125 was dissolved in sodium carbonate buffer (pH 9) and then diluted in HBS-EDTA-P20 buffer to desired concentrations (five serial dilutions from 1 × 10^−5 to 1 × 10^−8 M) and injected at flow 30 μL/min with KINJET 60/180 %pos, analyte position, volume, and dissociation time. Specific binding was calculated using BiaEval 3 software.

“And” between values parts separate entries of the source, which are not always exact repeats. Equal values may be shown once.

Consider `COc1ccc2[nH]c(-c3cccc(F)c3)cc(=O)c2c1OP(=O)(O)O` [CVM-1118], for which the viability at 0.01 µM in data set [1] is > 90%. Also, the tumor volume with HCT-116 (20 mg/kg i.v. once every 2 days for 7 times) is recorded as 670 ± 447 mm^3; with HCT-116 (20 mg/kg orally daily for 28 days), 1,591 ± 747 mm^3; with HCT-116 (50 mg/kg orally daily for 28 days), 722 ± 595 mm^3; with HCT-116 (100 mg/kg orally daily for 28 days) it was 475 ± 415 mm^3. Besides, the “animals found dead prior to the termination of the study” value is “two mice” in the data set with HCT-116 (20 mg/kg i.v. treatment group) and “One mouse” in the data set with HCT-116 (50 mg/kg oral treatment group).
As a reminder, the GI50 is the concentration giving 50% growth inhibition. Higher therefore signals lower sensitivity of the cells. On to `COc1ccc2[nH]c(-c3cccc(F)c3)cc(=O)c2c1O` [CVM-1125], for which, on Nucleolin, the “Dissociation (kd)” value came to 0.0122 s⁻¹. Moreover, the kon on Nucleolin (read-out: Association (ka)) is 13500 M⁻¹ s⁻¹; on TRAP1 (read-out: Association (ka)), 30200 M⁻¹ s⁻¹. In addition, the Kd on Nucleolin (read-out: KD (kd/ka)) is 906 nM; at TRAP1 (read-out: KD (kd/ka)), 67 nM and 66.8 nM. Also, the GI50 is 21.1 nM with DU-145, 28.8 nM in the data set with SNB-19 and 49.6 nM in the data set with HOP-62.
